# In US6875844B1, “Peptide compounds derived from a shifted ORF of the iCE gene” (Institut Gustave Roussy, priority 1999, dated 2005):
# Experiments:
# [1] = tested on: autologous EBV-transformed B cells; assay: Target sensitization assay: 51Cr release lysis by CTL clone 3B8 of peptide-incubated autologous EBV-transformed B cells; type: cell-based, human; conditions: EBV-transformed B cells incubated with peptide, CTL clone 3B8 effector 30:1, chromium release after 4 h; read-out: Peptide concentration giving semi-maximal lysis
# Method: 2000 EBV-transformed cells were incubated and labeled with 51Cr for 1 h in the presence of the HLA-B7-restricted iCE peptide (SPRWWPTCL; SEQ ID NO:2) or another control HLA-B7-restricted peptide (VISTVVANL; SEQ ID NO:9). Clone 3B8 was then added as an effector, in a ratio set at 30:1. Chromium release was measured after 4 h.
# The cytolytic activity of the CTLs was determined in a standard ^51Cr release assay as previously described (22). Target cells (RCC and K562 cell lines) were labeled for 1 h with 50 μCi to 100 μCi of ^51Cr (Du Pont, NEN, Boston, Mass.) at 37° C., and 2×10^3 cells were seeded in 96-microwell plates in 100 μl of RPMI supplemented with 5% of FCS. […] The 96-microwell plates were incubated at 37° C. for 4 h, and ^51Cr release was determined in the harvested supernatants. […]
# In order to reduce the nucleotide sequence encoding the antigen, several truncated cDNAs were obtained by PCR amplification. […] After examining the corresponding amino acid sequence, all possible nonamers and decamers were synthesized, and their ability to make autologous EBV-transformed B cells sensitive to lysis by 3B8 was evaluated.
# Finally, an alternative ORF was found (a+1 translational open reading frame leading to a 453-nt ORF) with three ATGs in nt positions 476, 479 and 803, which encodes a nonamer (SPRWWPTCL) (SEQ ID NO: 2) in the minimum region of nt 763-855. […]
# [2] = biological target: T1, HLA-B*0702 (Homo sapiens, UniProt P01889); assay: Binding and stability of peptide on T2 cells transfected with HLA-B*0702 (HLA-B7 expression by flow cytometry)
# T1 construct: expressed in transfected cells; host or cells: T2 cells
# Method: T2 cells were incubated at 26° C. for 16 hours in medium without serum containing peptides at a concentration of 50 μM. Then, the peptides were again added, and the cells were incubated at 37° C. At 30-min or 1-h intervals, aliquots of cells were harvested, and the change in HLA-B7 expression was monitored by flow cytometry using an anti-HLA-B7 mAB (HB59). By way of control, an HLA-A2-restricted HSP70 peptide was used. The peptide SPRWWPTCL is provided in SEQ ID NO: 2.
# HLA-A2-binding peptide antigens upregulate the expression of HLA-A2 molecules on T2 cells (37). Similarly, T2 cells transfected with HLA-B*0702 (38) were used to analyze the binding capacity and the stability of the iCE peptide (FIG. 6). At […], the binding of the iCE peptide is stable over time for at least 4 h, unlike the control, which is the HLA-A2-restricted HSP70 peptide (14).
sequence,measurement,setting,value
"SPRWWPTCL [nonamer encoded by the +1 alternative ORF of the iCE gene, with HLA-B7-anchoring residues at positions 2, 3 and 9]",EC50,[1],< 1 µM
same,Stability of binding to T2 cells transfected with HLA-B*0702 (in words),[2]; T2 cells transfected with HLA-B*0702,stable with time
same,Time over which binding to HLA-B7 is stable,"[2]; T2 cells transfected with HLA-B*0702, peptide at 50 mM (so in the source), 37° C.",at least 4 h
same,Binding to HLA-B*0702-presenting molecules (in words),[2]; binding assay by immunofluorescence using transfected T2 cells,binds
